Key:
Assay type in all cases: in vivo
[1] = tested on: Plutella xylostella (Diamond Back Moth); assay: Example B4: Plutella xylostella (diamond back moth), artificial diet, eggs, 24-well; details: 192 h, application rate of 200 ppm, 8 days after infestation, eggs, read-out: control in at least one of the two categories (mortality or growth inhibition)
Protocol: 24-well microtiter plates with artificial diet were treated with aqueous test solutions prepared from 10′000 ppm DMSO stock solutions by pipetting. After drying, Plutella eggs were pipetted through a plastic stencil onto a gel blotting paper and the plate was closed with it. The samples were assessed for mortality and growth inhibition in comparison to untreated samples 8 days after infestation.

[2] = tested on: Spodoptera littoralis (Egyptian Cotton Leaf Worm); assay: Example B7: Spodoptera littoralis (Egyptian cotton leaf worm), cotton leaf discs sprayed, L1 larvae; details: foliar, 72 h, application rate of 200 ppm, 3 days after infestation, L1 larvae, read-out: control in at least one of the three categories (mortality, anti-feedant effect, or growth inhibition)
Outline: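 Cotton leaf discs on agar were sprayed with aqueous test solutions made from 10′000 ppm DMSO stocks, dried, then infested with five L1 larvae. Mortality, anti-feeding effect and growth inhibition were scored against untreated discs 3 days after infestation; control means any category exceeds untreated.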

[3] = tested on: Chilo suppressalis (Striped Rice Stemborer); assay: Example B3: Chilo suppressalis (striped rice stemborer), artificial diet, L2 larvae; details: 144 h, application rate of 200 ppm, 6 days after infestation, L2 larvae, read-out: control in at least one of the three categories (mortality, anti-feedant effect, or growth inhibition)
Outline: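 Artificial diet treated with aqueous dilutions of DMSO stocks (10'000 ppm stock), dried, then infested with 6-8 L2 larvae per well. Mortality, anti-feeding and growth inhibition scored against untreated samples 6 days after infestation. Control counted when any category exceeds untreated.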

[4] = tested on: Diabrotica Balteata (Corn Root Worm); assay: Example B1: Diabrotica balteata (corn root worm), maize sprouts sprayed, L2 larvae; details: 96 h, application rate of 200 ppm, 4 days after infestation, L2 larvae, read-out: control in at least one of the two categories (mortality or growth inhibition)
Outline: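 Spray test: maize sprouts on agar, aqueous dilutions of 10′000 ppm DMSO stock; after drying, 6–10 L2 larvae/well. Read-out at 4 d post-infestation: mortality and growth inhibition vs untreated.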

CC(c1ncnn1-c1ccc(C#N)cn1)N(C)c1c(C#N)cnc2c(C(F)(F)F)cc(C(F)(F)F)cc12 (stereo not drawn) [P.224, 4-[1-[2-(5-cyano-2-pyridyl)-1,2,4-tirazol-3-yl]ethyl-methyl-amino]-6,8-bis(trifluoromethy)quino-line-3-carbonitrile]
≥ 80%: percent control (mortality or growth inhibition) at 200 ppm [1] | percent control (mortality, anti-feedant effect or growth inhibition) at 200 ppm [2] | percent control (mortality, anti-feedant effect or growth inhibition) at 200 ppm [3] | percent control (mortality or growth inhibition) at 200 ppm [4]

CC(c1nccnc1-n1nccn1)N(C)c1ncnc2c(Br)cc(C(F)(F)F)cc12 (stereo not drawn) [P.104, 8-bromo-N-methyl-N-[1-[3-(triazol-2-yl)pyrazin-2-yl]ethyl]-6-(trifluoromethyl)quinazolin-4-amine]
≥ 80%: percent control (mortality or growth inhibition) at 200 ppm [1] | percent control (mortality, anti-feedant effect or growth inhibition) at 200 ppm [2] | percent control (mortality, anti-feedant effect or growth inhibition) at 200 ppm [3] | percent control (mortality or growth inhibition) at 200 ppm [4]

C[C@@H](c1ncnn1-c1ncccn1)N(C)c1c(F)cnc2c(C(F)(F)F)cc(C(F)(F)F)cc12 [P.176, 3-fluoro-N-methyl-N-[(1S)-1-(2-pyrimidin-2-yl-1,2,4-triazol-3-yl)ethyl]-6,8-bis(trifluoromethyl)quinolin-4-amine]
≥ 80%: percent control (mortality or growth inhibition) at 200 ppm [1] | percent control (mortality, anti-feedant effect or growth inhibition) at 200 ppm [2] | percent control (mortality, anti-feedant effect or growth inhibition) at 200 ppm [3] | percent control (mortality or growth inhibition) at 200 ppm [4]

CC(c1nccnc1-c1ccc(C#N)cn1)N(C)c1ncnc2c(C(F)(F)F)cc(C(F)(F)F)cc12 (stereo not drawn) [P.116, 6-[3-[1-[[6,8-bis(trifluoromethyl)quina-zolin-4-yl]-methyl-amino]ethyl]pyrazin-2-yl]pyridine-3-carbonitrile]
≥ 80%: percent control (mortality or growth inhibition) at 200 ppm [1] | percent control (mortality, anti-feedant effect or growth inhibition) at 200 ppm [2] | percent control (mortality, anti-feedant effect or growth inhibition) at 200 ppm [3] | percent control (mortality or growth inhibition) at 200 ppm [4]

CC(Nc1ncnc2c(Cl)cc(C(F)(F)F)cc12)c1nccnc1-c1ccc(OC(F)F)cn1 (stereo not drawn) [P.113, 8-chloro-N-[1-[3-[5-(difluoromethoxy)-2-pyridyl]pyrazin-2-yl]ethyl]-6-(trifluoromethyl)quinazolin-4-amine]
≥ 80%: percent control (mortality or growth inhibition) at 200 ppm [1] | percent control (mortality, anti-feedant effect or growth inhibition) at 200 ppm [2] | percent control (mortality, anti-feedant effect or growth inhibition) at 200 ppm [3] | percent control (mortality or growth inhibition) at 200 ppm [4]

CC(c1nccnc1-c1ccc(C#N)cn1)N(C)c1ncnc2c(Cl)cc(C(F)(F)F)cc12 (stereo not drawn) [P.122]
≥ 80%: percent control (mortality or growth inhibition) at 200 ppm [1] | percent control (mortality, anti-feedant effect or growth inhibition) at 200 ppm [2] | percent control (mortality, anti-feedant effect or growth inhibition) at 200 ppm [3] | percent control (mortality or growth inhibition) at 200 ppm [4]

CC(c1nccnc1-c1ccc(OC(F)F)cn1)N(C)c1ncnc2c(Br)cc(C(F)(F)F)cc12 (stereo not drawn) [P.114, 8-bromo-N-[1-[3-[5-(difluoromethoxy)-2-pyridyl]pyrazin-2-yl]ethyl]-N-methyl-6-(trifluoromethyl)quinazolin-4-amine]
≥ 80%: percent control (mortality or growth inhibition) at 200 ppm [1] | percent control (mortality, anti-feedant effect or growth inhibition) at 200 ppm [2] | percent control (mortality, anti-feedant effect or growth inhibition) at 200 ppm [3] | percent control (mortality or growth inhibition) at 200 ppm [4]

C[C@@H](c1ncnn1-c1ncccn1)N(C)c1ccnc2c(Br)cc(C(F)(F)F)cc12 [P.255, 8-bromo-N-methyl-N-[(1S)-1-(2-pyrimidn-2-yl-1,2,4-triazol-3-yl)ethyl]-6-(trifluoromethyl)quinolin-4-amine]
≥ 80%: percent control (mortality or growth inhibition) at 200 ppm [1] | percent control (mortality, anti-feedant effect or growth inhibition) at 200 ppm [2] | percent control (mortality, anti-feedant effect or growth inhibition) at 200 ppm [3] | percent control (mortality or growth inhibition) at 200 ppm [4]

CC(c1ncnn1-c1ncccn1)N(C)c1nccc2c(C(F)(F)F)cc(C(F)(F)F)cc12 (stereo not drawn) [P.250, N-methyl-N-[1-(2-pyrimidin-2-yl-1,2,4-triazol-3-yl)ethyl]-5,7-bis(trifluoromethyl)isoquino-lin-1-amine]
≥ 80%: percent control (mortality or growth inhibition) at 200 ppm [1] | percent control (mortality, anti-feedant effect or growth inhibition) at 200 ppm [2] | percent control (mortality, anti-feedant effect or growth inhibition) at 200 ppm [3] | percent control (mortality or growth inhibition) at 200 ppm [4]
